Data published in PMC9814781, “Structure-based design of a dual-warhead covalent inhibitor of FGFR4” (Communications Chemistry, 2022).

Tests used:
[1] = biological target: PIK3CA/PIK3R1 (Homo sapiens, UniProt P42336); assay: Kinase selectivity profiling
[2] = biological target: ABL1 (Homo sapiens, UniProt P00519); assay: Kinase selectivity profiling
[3] = biological target: CK2α1/β (Homo sapiens, UniProt P68400); assay: Kinase selectivity profiling
[4] = test system: Hep3B; assay: Hep3B viability assay; assay type: cell-based; conditions: Homo sapiens, FGF19-overexpressing HCC cell line, 72 h, CCK-8
Procedure: Hep3B (ThermoFisher Scientific, 11965, America) and Huh7 (ThermoFisher Scientific, 11095, America) cells were seeded into 96-well plates at 4000 cells/well and 2000 cells/well, respectively. […] Cell viabilities were measured by a CCK-8 kit (Vazyme, China). The IC50 values were calculated using GraphPad Prism software.

[5] = biological target: EPHA4 (Homo sapiens, UniProt P54764); assay: Kinase selectivity profiling
[6] = biological target: DYRK1A (Homo sapiens, UniProt Q13627); assay: Kinase selectivity profiling
[7] = biological target: TYRO3 (Homo sapiens, UniProt Q06418); assay: Kinase selectivity profiling
[8] = biological target: GSK3β (Homo sapiens, UniProt P49841); assay: Kinase selectivity profiling
[9] = biological target: IKKε(IKBKE) (Homo sapiens, UniProt Q14164); assay: Kinase selectivity profiling
[10] = biological target: EPHA7 (Homo sapiens, UniProt Q15375); assay: Kinase selectivity profiling
[11] = biological target: LYNb (Homo sapiens, UniProt P07948); assay: Kinase selectivity profiling
[12] = biological target: YES (Homo sapiens, UniProt P07947); assay: Kinase selectivity profiling
[13] = biological target: PIK3CB/PIK3R1 (Homo sapiens, UniProt P42338); assay: Kinase selectivity profiling
[14] = biological target: NEK2 (Homo sapiens, UniProt P51955); assay: Kinase selectivity profiling
[15] = biological target: PDGFRa (Homo sapiens, UniProt P16234); assay: Kinase selectivity profiling
[16] = biological target: EPHA6 (Homo sapiens, UniProt Q9UF33); assay: Kinase selectivity profiling
[17] = biological target: HPK1 (Homo sapiens, UniProt Q92918); assay: Kinase selectivity profiling
[18] = biological target: TNIK (Homo sapiens, UniProt Q9UKE5); assay: Kinase selectivity profiling
[19] = biological target: ROS1 (Homo sapiens, UniProt P08922); assay: Kinase selectivity profiling
[20] = biological target: TTK (Homo sapiens, UniProt P33981); assay: Kinase selectivity profiling
[21] = biological target: Erk1 (Homo sapiens, UniProt P27361); assay: Kinase selectivity profiling
[22] = biological target: RSK2 (Homo sapiens, UniProt P51812); assay: Kinase selectivity profiling
[23] = biological target: EPHA3 (Homo sapiens, UniProt P29320); assay: Kinase selectivity profiling
[24] = biological target: FGFR1 (Homo sapiens, UniProt P11362); assay: Kinase inhibition assay (ADP-Glo); assay type: biochemical; set-up: human FGFR1 (residues 456–765); 6xHis + PreScission site (N, cleaved yes); made in house; host or cells: Escherichia coli Rosseta
Procedure: Wild-type FGFRs and mutant FGFRs were prepared as previously described[25]–[27]. In brief, the kinase domains of human FGFR1 (residues 456–765), FGFR2 (residues 453–770), FGFR3 (residues 450–758), and FGFR4 (residues 445–753) were cloned into a modified pET28a expression vector and then transfected into Escherichia coli Rosseta cells. The N-terminal of the recombinant proteins were contained a 6xHis tag followed by a PreScission cleavage site for FGFR1, FGFR2, FGFR3, and FGFR4. Site-directed mutagenesis of FGFR4 was generated according to the ClonExpress II One Step Cloning Kit (Vazyme) using the pET28a-FGFR4 plasmid as the template. These mutants were confirmed by DNA sequencing (Tsingke, Changsha, China). For crystallization experiments, the wild-type FGFR4 plasmid was co-expressed with untagged YOPH to obtain non-phosphorylated proteins. The proteins were first purified by Ni-NTA affinity chromatography. […]
All kinase inhibition assays were performed with optimized kinase assay buffer consisting of 40 mM Tris-HCl pH 7.5, 20 mM MgCl2, 20 mM NaCl, 0.1 mg/mL BSA, 1 mM TCEP, and 4% DMSO. […] Fluorescence was measured on a multimode plate reader (Perkin-Elmer) using a chemiluminescence program after the addition of the detection reagent. IC50 values were determined using a three-parameter log [Inhibitor] versus response model in GraphPad Prism software.

[25] = biological target: MAP4K2 (Homo sapiens, UniProt Q12851); assay: Kinase selectivity profiling
[26] = biological target: TYK2 (Homo sapiens, UniProt P29597); assay: Kinase selectivity profiling
Sequence of TYK2 (P29597 whole entry): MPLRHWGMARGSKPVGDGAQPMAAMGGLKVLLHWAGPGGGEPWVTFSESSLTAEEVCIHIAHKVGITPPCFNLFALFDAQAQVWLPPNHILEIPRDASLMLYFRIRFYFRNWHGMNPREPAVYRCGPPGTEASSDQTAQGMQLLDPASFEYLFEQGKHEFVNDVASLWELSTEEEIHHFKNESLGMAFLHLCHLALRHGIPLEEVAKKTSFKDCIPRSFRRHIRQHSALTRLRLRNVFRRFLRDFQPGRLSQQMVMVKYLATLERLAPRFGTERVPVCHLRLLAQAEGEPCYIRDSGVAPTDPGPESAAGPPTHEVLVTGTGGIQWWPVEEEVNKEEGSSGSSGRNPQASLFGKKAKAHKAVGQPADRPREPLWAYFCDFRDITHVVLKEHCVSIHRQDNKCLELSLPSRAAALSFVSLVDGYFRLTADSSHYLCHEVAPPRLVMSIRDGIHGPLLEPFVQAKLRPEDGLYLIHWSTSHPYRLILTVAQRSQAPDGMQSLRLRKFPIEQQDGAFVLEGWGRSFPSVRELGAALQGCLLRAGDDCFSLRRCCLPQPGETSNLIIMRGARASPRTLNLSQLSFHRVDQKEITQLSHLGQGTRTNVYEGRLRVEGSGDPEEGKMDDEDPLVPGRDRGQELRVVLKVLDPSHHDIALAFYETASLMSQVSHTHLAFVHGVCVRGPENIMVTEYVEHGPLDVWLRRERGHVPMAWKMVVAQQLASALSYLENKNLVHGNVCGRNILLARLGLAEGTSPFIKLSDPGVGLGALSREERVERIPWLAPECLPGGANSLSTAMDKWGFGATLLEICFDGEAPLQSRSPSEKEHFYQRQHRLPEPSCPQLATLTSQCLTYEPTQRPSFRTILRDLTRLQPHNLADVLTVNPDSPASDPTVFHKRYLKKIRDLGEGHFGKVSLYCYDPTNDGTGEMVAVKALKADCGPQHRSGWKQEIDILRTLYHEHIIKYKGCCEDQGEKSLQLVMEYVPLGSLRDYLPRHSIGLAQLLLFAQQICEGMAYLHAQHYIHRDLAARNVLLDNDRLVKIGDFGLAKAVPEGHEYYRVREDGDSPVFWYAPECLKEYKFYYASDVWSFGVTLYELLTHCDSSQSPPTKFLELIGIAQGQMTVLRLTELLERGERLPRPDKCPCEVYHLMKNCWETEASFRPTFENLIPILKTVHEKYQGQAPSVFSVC

Sequence of ROS1 (P08922 28-2347): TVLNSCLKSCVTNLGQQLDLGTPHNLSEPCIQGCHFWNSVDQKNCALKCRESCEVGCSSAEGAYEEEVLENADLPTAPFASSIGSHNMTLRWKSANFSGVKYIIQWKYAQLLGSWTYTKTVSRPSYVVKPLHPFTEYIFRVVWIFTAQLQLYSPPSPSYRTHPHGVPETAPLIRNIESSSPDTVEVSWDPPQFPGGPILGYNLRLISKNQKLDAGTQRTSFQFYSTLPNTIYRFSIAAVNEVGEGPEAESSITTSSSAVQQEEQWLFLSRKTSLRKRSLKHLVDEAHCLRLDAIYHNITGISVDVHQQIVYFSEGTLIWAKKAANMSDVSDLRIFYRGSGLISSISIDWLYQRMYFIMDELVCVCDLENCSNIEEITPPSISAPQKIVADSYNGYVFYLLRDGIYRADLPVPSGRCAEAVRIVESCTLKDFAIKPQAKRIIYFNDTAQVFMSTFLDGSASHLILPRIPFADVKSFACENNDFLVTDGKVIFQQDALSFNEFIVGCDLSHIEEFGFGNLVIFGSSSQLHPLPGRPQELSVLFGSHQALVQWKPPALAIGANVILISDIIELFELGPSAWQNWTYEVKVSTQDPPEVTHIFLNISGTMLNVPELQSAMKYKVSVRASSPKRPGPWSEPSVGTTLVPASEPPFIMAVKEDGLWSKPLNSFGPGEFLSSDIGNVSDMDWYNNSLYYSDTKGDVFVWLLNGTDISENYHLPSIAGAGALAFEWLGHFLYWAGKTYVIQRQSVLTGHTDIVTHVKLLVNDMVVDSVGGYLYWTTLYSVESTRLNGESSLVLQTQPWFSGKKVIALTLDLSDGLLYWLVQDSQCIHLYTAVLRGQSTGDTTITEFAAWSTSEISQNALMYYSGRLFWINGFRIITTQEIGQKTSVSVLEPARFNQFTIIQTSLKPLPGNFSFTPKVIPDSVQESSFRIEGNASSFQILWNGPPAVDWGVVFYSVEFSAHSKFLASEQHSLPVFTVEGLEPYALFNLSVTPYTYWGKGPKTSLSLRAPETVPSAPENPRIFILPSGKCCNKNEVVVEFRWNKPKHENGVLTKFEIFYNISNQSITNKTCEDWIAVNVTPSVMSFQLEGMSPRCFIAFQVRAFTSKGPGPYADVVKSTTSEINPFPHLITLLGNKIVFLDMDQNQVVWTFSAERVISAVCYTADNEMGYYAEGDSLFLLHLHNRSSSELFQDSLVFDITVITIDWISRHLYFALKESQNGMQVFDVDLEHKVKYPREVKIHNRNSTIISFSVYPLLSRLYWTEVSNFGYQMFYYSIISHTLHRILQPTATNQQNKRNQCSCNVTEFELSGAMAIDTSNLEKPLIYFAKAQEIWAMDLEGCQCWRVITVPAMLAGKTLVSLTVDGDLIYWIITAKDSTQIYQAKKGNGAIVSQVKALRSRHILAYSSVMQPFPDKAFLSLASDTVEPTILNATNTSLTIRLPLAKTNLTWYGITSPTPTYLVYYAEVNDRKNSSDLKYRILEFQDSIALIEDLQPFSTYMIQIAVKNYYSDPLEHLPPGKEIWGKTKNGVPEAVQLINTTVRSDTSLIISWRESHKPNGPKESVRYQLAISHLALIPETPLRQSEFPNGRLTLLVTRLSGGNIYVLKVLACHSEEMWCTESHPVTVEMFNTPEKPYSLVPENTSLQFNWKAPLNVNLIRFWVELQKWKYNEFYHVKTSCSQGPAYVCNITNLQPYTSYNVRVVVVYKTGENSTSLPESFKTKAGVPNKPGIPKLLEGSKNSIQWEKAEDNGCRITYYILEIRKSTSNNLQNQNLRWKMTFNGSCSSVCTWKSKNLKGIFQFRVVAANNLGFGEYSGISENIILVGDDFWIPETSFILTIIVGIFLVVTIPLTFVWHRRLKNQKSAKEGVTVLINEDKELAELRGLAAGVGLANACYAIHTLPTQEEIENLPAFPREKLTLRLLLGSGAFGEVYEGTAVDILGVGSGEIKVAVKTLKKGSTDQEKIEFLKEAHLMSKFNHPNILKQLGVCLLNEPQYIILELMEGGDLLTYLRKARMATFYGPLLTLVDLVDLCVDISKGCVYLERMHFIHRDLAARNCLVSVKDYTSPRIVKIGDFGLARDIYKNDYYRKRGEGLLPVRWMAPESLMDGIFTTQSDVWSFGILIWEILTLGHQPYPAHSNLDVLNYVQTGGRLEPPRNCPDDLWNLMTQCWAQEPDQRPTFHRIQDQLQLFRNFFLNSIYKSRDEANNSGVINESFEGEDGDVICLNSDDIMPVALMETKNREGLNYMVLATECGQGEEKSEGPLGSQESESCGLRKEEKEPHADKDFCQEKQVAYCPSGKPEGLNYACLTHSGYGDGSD
Sequence of EPHA3 (P29320 21-983): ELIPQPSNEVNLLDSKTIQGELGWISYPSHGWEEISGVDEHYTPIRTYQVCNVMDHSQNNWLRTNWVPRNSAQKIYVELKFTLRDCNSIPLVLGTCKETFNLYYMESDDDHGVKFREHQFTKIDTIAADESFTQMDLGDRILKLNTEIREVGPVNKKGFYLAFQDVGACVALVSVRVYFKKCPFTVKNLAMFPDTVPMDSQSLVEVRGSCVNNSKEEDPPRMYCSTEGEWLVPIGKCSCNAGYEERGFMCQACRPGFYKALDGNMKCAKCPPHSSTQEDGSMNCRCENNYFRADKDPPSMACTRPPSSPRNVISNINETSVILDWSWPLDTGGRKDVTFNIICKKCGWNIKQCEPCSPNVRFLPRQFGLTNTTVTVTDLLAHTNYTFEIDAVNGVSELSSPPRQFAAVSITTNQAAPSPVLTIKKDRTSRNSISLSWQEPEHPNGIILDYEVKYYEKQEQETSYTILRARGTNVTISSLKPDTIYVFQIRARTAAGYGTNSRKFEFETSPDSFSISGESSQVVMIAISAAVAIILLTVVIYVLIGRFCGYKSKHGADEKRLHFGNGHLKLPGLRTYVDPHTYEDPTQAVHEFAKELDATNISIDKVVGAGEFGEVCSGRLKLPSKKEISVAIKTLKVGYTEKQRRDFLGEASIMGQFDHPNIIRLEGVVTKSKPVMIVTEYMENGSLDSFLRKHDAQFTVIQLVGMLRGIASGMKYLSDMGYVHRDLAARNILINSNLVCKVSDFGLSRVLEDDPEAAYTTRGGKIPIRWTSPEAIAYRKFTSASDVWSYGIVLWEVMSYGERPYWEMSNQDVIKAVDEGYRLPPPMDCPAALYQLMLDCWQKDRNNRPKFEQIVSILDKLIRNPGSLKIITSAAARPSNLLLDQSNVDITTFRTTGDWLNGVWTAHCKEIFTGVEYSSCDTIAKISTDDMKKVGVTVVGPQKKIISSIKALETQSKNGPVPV
Sequence of YES (P07947 whole entry): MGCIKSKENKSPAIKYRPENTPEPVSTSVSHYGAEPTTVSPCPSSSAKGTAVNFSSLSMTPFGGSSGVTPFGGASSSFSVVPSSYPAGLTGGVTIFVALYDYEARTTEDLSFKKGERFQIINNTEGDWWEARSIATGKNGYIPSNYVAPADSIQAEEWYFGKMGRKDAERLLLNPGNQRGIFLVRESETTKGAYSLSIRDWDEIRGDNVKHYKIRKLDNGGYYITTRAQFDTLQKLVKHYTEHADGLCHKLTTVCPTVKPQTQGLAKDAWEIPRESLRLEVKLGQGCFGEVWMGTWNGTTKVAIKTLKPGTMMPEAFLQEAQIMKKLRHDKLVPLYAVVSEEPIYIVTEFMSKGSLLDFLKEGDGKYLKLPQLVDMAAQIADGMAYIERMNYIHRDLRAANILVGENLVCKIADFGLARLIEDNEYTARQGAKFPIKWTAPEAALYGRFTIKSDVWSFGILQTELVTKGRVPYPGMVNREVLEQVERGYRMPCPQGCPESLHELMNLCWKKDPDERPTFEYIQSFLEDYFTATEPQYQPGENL

C=CC(=O)Nc1ccccc1Nc1ncc2c(n1)N(CCCN1CCN(C(=O)C=C)CC1)C(=O)N(c1cc(OC)cc(OC)c1)C2 [CXF-009]
inhibition at 1 µM [1]: -35% | inhibition at 1 µM [2]: -1.44% | inhibition at 1 µM [3]: -3.22% | IC50 [4]: 895 nM | inhibition at 1 µM [5]: -6.83% | inhibition at 1 µM [6]: -1.23% | inhibition at 1 µM [7]: 0.8% | inhibition at 1 µM [8]: -0.37% | inhibition at 1 µM [9]: 7.21% | inhibition at 1 µM [10]: 2.74% | inhibition at 1 µM [11]: 7.62% | inhibition at 1 µM [12]: -7.61% | inhibition at 1 µM [13]: 0.17% | inhibition at 1 µM [14]: 17.9% | inhibition at 1 µM [15]: -0.91% | inhibition at 1 µM [16]: 5.28% | inhibition at 1 µM [17]: -2.36% | inhibition at 1 µM [18]: -13.4% | inhibition at 1 µM [19]: -0.51% | inhibition at 1 µM [20]: 6.62% | inhibition at 1 µM [21]: 3.99% | inhibition at 1 µM [22]: 2.24% | inhibition at 1 µM [23]: -1.81% | IC50 [24]: 2580 nM | inhibition at 1 µM [25]: 1.43% | inhibition at 1 µM [26]: -5.05%
